The structures appear in SMILES notation. pIC50: −log10 of the molar value.

The assay concerns the target T1, human GOAT (Homo sapiens, UniProt Q96T53).
T1 construct: expressed in transfected cells; host or cells: HEK293 (Hek293 hGOAT/PPGhrl Clone #1B8), stably transfected
T1 sequence (Q96T53 1-435): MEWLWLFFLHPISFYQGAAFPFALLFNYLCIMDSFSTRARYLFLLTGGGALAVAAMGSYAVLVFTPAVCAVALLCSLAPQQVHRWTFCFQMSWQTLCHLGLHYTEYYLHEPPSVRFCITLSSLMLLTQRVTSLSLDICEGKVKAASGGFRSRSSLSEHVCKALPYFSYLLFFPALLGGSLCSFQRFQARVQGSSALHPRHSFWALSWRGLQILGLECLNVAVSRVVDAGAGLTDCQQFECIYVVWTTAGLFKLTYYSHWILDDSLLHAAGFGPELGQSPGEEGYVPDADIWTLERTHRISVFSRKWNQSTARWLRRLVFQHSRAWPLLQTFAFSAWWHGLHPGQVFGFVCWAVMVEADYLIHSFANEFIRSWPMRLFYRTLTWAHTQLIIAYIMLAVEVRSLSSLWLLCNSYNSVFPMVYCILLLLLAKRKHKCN
Nature of the assay: Determination of hGOAT activity in HEK293 cells after incubation with test compound (acyl-ghrelin ELISA). The format is cell-based. Particulars: HEK293 cells stably transfected with preproghrelin and human GOAT; octanoate-BSA 100 μM, 5 hours incubation; acyl-ghrelin in medium by ELISA; 8 compound concentrations. The procedure:
Determination of hGOAT Activity in HEK293 Cells after Incubation with Test Compound
HEK293 cells stably transfected with two expression vectors, one coding for preproghrelin cDNA and a second for the expression of human GOATcDNA are used as a cellular model. After feeding the cells with octanoic acid for 5 hours, acyl-ghrelin is measured in cell culture medium by an ELISA procedure.
Cellline: Hek293 hGOAT/PPGhrl Clone #1B8 Sodium octanoate, Sigma, Cat.-No. C5038
BD Poly-D-Lysin 384-well Plates, black-clear polystyrene BD Bioscience Cat.-No. […] ELISA human acylated Ghrelin Kit purchased from Bertin Pharman (detailed composition of buffers e.g. wash-puffer, ELISA buffer not known) All further reagents used were of highest analytical grade available.
Cells are plated with a density of 5000 cells/well in 384-well poly-D-lysin plates and incubated for 1 day at 37° C., 5% CO2 in DMEM medium, 10% FCS, 1×NEAA, Puromycin (0.5 μg/ml) and G418 (1 mg/ml). Then the medium is changed to a identical medium without FCS and containing Octanoate-BSA (final concentration 100 μM each) and compound in DMSO (final DMSO concentration 0.3%). After incubation for 5 hours acylghrelin in the medium is measured by ELISA.
The medium sample is diluted 1:25 in Elisa buffer, a 25 μl aliquot is transferred to a 384-well ELISA plate previously washed 4 times with 100 μL wash buffer, and 25 μl tracer-solution is added. After incubation overnight (˜20 h) at 4° C. temperature the plate is washed 4 times with 100 μl wash-buffer per well. Finally 50 μl Ellman's reagent is added to each well and the plate is incubated in the dark for 20 minutes. The absorbance is measured at 405 nm in an Envision multilabel reader and the amount of acylated ghrelin is calculated according to a acylated ghrelin standard curve provided in the same plate.
The analysis of the data is performed by calculation of the percentage of acyl-ghrelin produced in the presence of test compound compared to the amount of acyl-ghrelin produced in the vehicle control samples. An inhibitor of the GOAT enzyme will give values between 100% CTL (no inhibition) and 0% CTL (complete inhibition).
IC50 values are calculated with Assay Explorer or other suited software based on curve fitting of results of 8 different compound concentrations.
A general note: An ELISA detects its analyte on a solid surface through an enzyme-linked reagent.
As to `Cc1nc2nonc2c(N)c1CN1CCC(OC(F)(F)F)CC1` [Example 1.4], the pIC50 was 9.25.

As to `Cc1nc2nonc2c(N)c1CN1CCC(c2cccc(C(F)(F)F)c2)C1` (centres unmarked) [Example 1.8], the pIC50 is 8.85. Under `Cc1nc2nonc2c(N)c1CN1CCC(S(C)(=O)=O)CC1` [Example 1.3] stands 8.39. Under `Cc1nc2nonc2c(N)c1CN1CCN(S(=O)(=O)C(F)F)CC1` [Example 2.6] stands 9.31. Under `Cc1nc2nonc2c(N)c1CN1CCN(C(=O)C(F)(F)F)CC1` [Example 2.1, 1-[4-({7-Amino-5-methyl-[1,2,5]oxadiazolo[3,4-b]pyridin-6-yl}methyl)piperazin-1-yl]-2,2,2-trifluoroethan-1-one] stands 8.24; under `Cc1nc2nonc2c(N)c1CN1CCC(O)(C(F)(F)F)C1` (centres unmarked) [Example 1.9], 8.96.

Molecule `Cc1nc2nonc2c(N)c1CN1CCN(C(=O)C2CC2)CC1` [Example 2.3] had a pIC50 of 8.38. Consider `Cc1nc2nonc2c(N)c1CN1CCOC(C)(c2ccc(F)cc2)C1` (centres unmarked) [Example 3.5], for which the pIC50 is 8.40.

In the case of `Cc1nc2nonc2c(N)c1CN1CCN(C(=O)OC(C)(C)C)CC1` [Example 1.5, tert-Butyl 4-({7-amino-5-methyl-[1,2,5]oxadiazolo[3,4-b]pyridin-6-yl}methyl)piperazine-1-carboxylate], the negative logarithm of the IC50 (pIC50) is 9.37. Against the preceding molecule, the pIC50 is 0.97 log units higher. Under `Cc1nc2nonc2c(N)c1CN1CCC(F)(F)C1` [Example 1.12] stands 8.15. With `Cc1nc2nonc2c(N)c1CN1CCCC(C(F)(F)F)C1` (centres unmarked) [Example 3.3], the pIC50 was 8.77.

Regarding `Cc1nc2nonc2c(N)c1CN1CCC(C(F)(F)F)CC1` [Example 3.4], the pIC50 was 8.89. For `Cc1nc2nonc2c(N)c1CN1CCC(F)(F)CC1` [Example 3.2], the negative logarithm of the IC50 (pIC50) is 8.66. `Cc1nc2nonc2c(N)c1CN1CCN(S(=O)(=O)C(F)(F)F)CC1` [Example 2.2]: the negative logarithm of the IC50 (pIC50) is 9.19. Compared with the last molecule, the pIC50 is 0.53 log units higher. As for `Cc1nc2nonc2c(N)c1CN1CCC(C(C)(C)O)C1` (centres unmarked) [Example 1.11], the pIC50 is 8.30. This pIC50 lies 0.89 log units lower than the previous one. Under `Cc1nc2nonc2c(N)c1CN1CCC(C#N)CC1` [Example 1.2] stands 8.44.

In turn, `COC(=O)N1CCN(Cc2c(C)nc3nonc3c2N)CC1` [Example 2.5] showed a pIC50 of 8.19. To `Cc1nc2nonc2c(N)c1CN1CCC(C(F)F)CC1` [Example 1.1, 6-{[4-(Difluoromethyl)piperidin-1-yl]methyl}-5-methyl-[1,2,5]oxadiazolo[3,4-b]pyridin-7-amine] belongs 8.89. Turning to `Cc1nc2nonc2c(N)c1CN1CCN(S(=O)(=O)C2CC2)CC1` [Example 2.4], the pIC50 is 8.74. In turn, `Cc1nc2nonc2c(N)c1CN1CCCC(F)(F)C1` [Example 3.1, 6-(3,3-Difluoro-piperidin-1-ylmethyl)-5-methyl-[1,2,5]oxadiazolo[3,4-b]pyridin-7-ylamine] had a pIC50 of 8.13. With `Cc1nc2nonc2c(N)c1CN1CCC(C(F)(F)F)C1` (centres unmarked) [Example 1.7], the pIC50 was 9.25.

Turning to `Cc1nc2nonc2c(N)c1CN1CCN(S(C)(=O)=O)CC1` [Example 1.13], the negative-log IC50 (pIC50) was 8.28.

In turn, `Cc1nc2nonc2c(N)c1CN1CC(C(F)(F)F)C1` [Example 1.6] had a pIC50 of 8.72.

Usually pIC50 stands for the IC50 on a negative log10 scale, so that one unit is a factor of ten.

Source of the values: patent publication US11319310B2, “Heterocyclyl-substituted oxadiazolopyridine derivatives for use as ghrelin O-acyl transferase (GOAT) inhibitors” (Boehringer Ingelheim International GmbH, priority 2018, dated 2022).
